Broadly, the ED50 is the dose that gives a 50% effect, or the effect in half of the subjects.

These results are taken from publication PMC6716272, “In Vivo and In Vitro Analyses of Novel Peptidomimetic Disruptors for the Serotonin 5-HT2C Receptor Interaction With Phosphatase and Tensin Homolog” (Frontiers in Pharmacology, 2019).

One data set relates to PTEN. As to the kind of experiment: PTEN lipid phosphatase activity assay (competitive ELISA for PI(4,5)P2). Conditions: 15 min preincubation 37°C with 1 ng/µl PTEN, then 4 µM PI(3,4,5)P3 2.25 h, two independent experiments in triplicate. In kind it is biochemical. The procedure: Lipid phosphatase activity of PTEN was quantified using a PTEN activity ELISA kit (K-4700, Echelon Biosciences, Salt Lake City, UT) following the manufacturer’s protocol. Briefly, 1 ng/µl PTEN enzyme (E-3000, Echelon Bioscience) was incubated with PTEN inhibitor SF1670 (200 µM), 1, 2, and 2 derivatives (10 µM) for 15 min at 37°C. Then, PI(3,4,5)P3 substrate was added for a final concentration of 4 µM, and the reaction was incubated at 37°C for 2.25 h. The lipid phosphatase activity of PTEN was quantified by measuring the amount of PI(4,5)P2 by competitive ELISA in which final absorbance is inversely related to the amount of PI(4,5)P2. The absorbance was measured by FlexStation3 at 450 nm (Molecular Devices). Results are represented as fold change over PTEN + PI(3,4,5)P3 alone (mean ± SD) of two independent experiments run in technical triplicates and analyzed by one-way ANOVA with a priori comparison with PTEN + PI(3,4,5)P3 alone (Dunnett’s; GraphPad Prism 7.02). All statistical analyses were conducted with an experiment-wise error rate of α = 0.05.
Background: In an ELISA, binding on a coated surface is turned into a signal by an enzyme label.

Data set [1] relates to lorcaserin–saline-trained rats. As to the kind of experiment: Two-lever drug discrimination, lorcaserin (0.75 mg/kg) vs saline. In kind it is in vivo, rat. As for the experimental part: (§1) Experimentally naïve male Sprague-Dawley rats (n = 43; Envigo, Inc.) weighing 300–325 g at the beginning of the experiment were housed two per cage in a temperature- (21–23°C) and humidity- (45–50%) controlled environment; lighting was maintained under a 12-h light–dark cycle (0700–1900 h). Rats were maintained at 80–90% of their free-feeding weights by restricting access to water. Rats received water during daily training sessions (5–6 ml/rat/session), in the afternoon several hours after training (20 min), and over the weekend (36 h). Experiments were conducted during the light phase of the light–dark cycle (between 0900 and 1200 h) and were carried out in accordance with the National Institutes of Health Guide for the Care and Use of Laboratory Animals and with the approval of the Institutional Animal Care and Use Committee at University of Texas Medical Branch.
(§2) The procedures were conducted in commercially available two-lever operant chambers (Med Associates, St. Albans, VT). Each chamber was equipped with a water-filled dispenser mounted equidistantly between two retractable response levers on the wall and housed in a light- and soundproof cubicle. Illumination came from a 28-V house light; ventilation and masking noise were provided by a ventilation fan in the right-side wall. A computer with Med-PC IV software was used to run programs and record all experimental events.
(§3) Standard two-lever, water-reinforced drug discrimination procedures were used ([Appel and Cunningham, 1986]; [Callahan and Cunningham, 1995]; [Colpaert, 1999]). Three cohorts (n = 13–16/cohort) were trained to discriminate an injection of a training drug from saline (1.0 ml/kg, i.p.) administered 15 min before start of daily (Monday–Friday) training sessions. In one cohort (n = 14), rats were trained to discriminate the training drug lorcaserin (0.75 mg/kg, 1.0 ml/kg, i.p.) from saline. In a second cohort (n = 13), rats were trained to discriminate the training drug WAY163909 (0.75 mg/kg, 1.0 ml/kg, i.p.) from saline. In the third cohort, rats (n = 16) were trained to discriminate the training drug cocaine (5 mg/kg, 1.0 ml/kg, i.p.) from saline. Two rats in the lorcaserin–saline cohort were excluded from the present study due to failure to maintain the discrimination. Rats in the WAY163909–saline cohort also participated in additional studies ([Wild et al., 2018]); the WAY163909 dose–response curve was reevaluated between studies; a washout period was allowed, and no carryover effects were observed.
(§4) During this phase, only the stimulus-appropriate (drug or saline) lever was present. Training began under a fixed ratio 1 (FR 1) schedule of water reinforcement, and the FR requirement was incremented until all animals were responding reliably under an FR 20 schedule for each experimental condition. For half of the rats, left lever responses were reinforced after training drug administration, whereas right lever responses were reinforced after saline administration; conditions were reversed for the remaining animals. During this phase of training, drug and saline were administered irregularly with the restriction that neither condition prevailed for more than three consecutive sessions.
(§5) After responding stabilized, both levers were presented simultaneously during 15-min training sessions. The rats were required to respond on the stimulus-appropriate (correct) lever to obtain water reinforcement. There were no programmed consequences for responding on the incorrect lever. This phase of training continued until the performance of all rats attained criterion (defined as mean accuracies of at least 80% stimulus-appropriate responding for 10 consecutive sessions).
(§6) Test sessions were initiated and conducted once or twice per week following attainment of criterion. Training sessions were run during the intervening days to maintain discrimination accuracy. […]

In data set [2] the test system is WAY163909–saline-trained rats. As to the kind of experiment: Two-lever drug discrimination, WAY163909 (0.75 mg/kg) vs saline. The data set is classed as in vivo, rat. The procedure: as §1, §2, §3, §4, §5, §6
Data set [3] relates to human unedited 5-HT2CR (h5-HT2CR-CHO cells). In kind it is cell-based. Conditions: for EMAX (%5-HT): maximum 5-HT-induced Cai2+ release in presence of 1 nM peptide derivative, 5-HT vehicle, 10^-11 to 10^-6 M, 5-HT alone = 100%, AUC normalised to crystal violet, mean ± SEM of 4–5 biological replicates, SEM; for change of 5-HT EC50 / potency versus 5-HT alone: pretreatment with 1 nM peptide; for elevation of the maximum Cai2+ release induced by 5-HT: pretreatment with peptide (1 nM), p < 0.05.

The test system is the same in data set [4]. The settings on record: ref Anastasio et al., 2013; cited from earlier work. An excerpt: Agonist binding to the 5-HT2CR results in dynamic changes in receptor conformation and induction of a variety of intracellular signaling pathways ([Berg et al., 1994]; [McGrew et al., 2002]; [Werry et al., 2005]; [Labasque et al., 2008]). Best characterized is coupling of the 5-HT2CR to Gαq/11 proteins to activate phospholipase Cβ (PLCβ), resulting in increased intracellular calcium (Cai ^2+) release, among various other signaling outcomes ([Millan et al., 2008]). One approach to selectively target the 5-HT2CR signaling is through protein–protein interactions that are selective for 5-HT2CR ove ...

Data set [5] relates to cocaine–saline-trained rats. As to the kind of experiment: Two-lever drug discrimination, cocaine (5 mg/kg) vs saline. The data set is classed as in vivo, rat. Conditions: for cocaine-lever responding, pretreatment before cocaine (2.5 mg/kg): lorcaserin 1 mg/kg (30 min) or SB242084 0.5 mg/kg (45 min) before test; for cocaine-lever responding in substitution test / response rate in substitution test: SB242084 0.5 mg/kg; for cocaine-lever responding in substitution test: cocaine 2.5 mg/kg, i.p. As for the experimental part:
as §1, §2, §3, §4, §5, §6

Setting [6] is: vs previous cocaine maintenance session, lorcaserin 1 mg/kg, p < 0.05.

Take `CC(C)(C)C(=O)Nc1ccc2c(c1)C(=O)C(=O)c1ccccc1-2` [SF1670]: the “PTEN lipid phosphatase activity” value with PTEN (200 µM inhibitor) is recorded as “suppresses PTEN lipid phosphatase activity”.

In the case of `c1cc2c3c(c1)[C@H]1CCC[C@H]1N3CCNC2` [WAY163909, (7b-R,10a-R)-1,2,3,4,8,9,10,10a-octahydro-7bH-cyclopenta[b][1,4] diazepino [6,7,1hi] indole], in data set [1] (substitution test, WAY163909 0.75 mg/kg i.p., full substitution = ≥80% drug-appropriate responding), the substitution for lorcaserin result is listed as “full substitution”. Besides, in data set [1] (vs previous lorcaserin maintenance session, WAY163909 0.75 mg/kg, TAT-r3L4F 2 µmol/kg (trend for 1 µmol/kg)), the “response rate in substitution test” value is given as “suppressed response rates similar to the training drug”. In data set [2] (i.p., 15 min before test, 95% CI 0.51–0.61 mg/kg), the “ED50 (WAY163909-lever responding)” value amounted to 0.56 mg/kg. The “response rates after training drug versus saline” value in data set [2] (training sessions, WAY163909 0.75 mg/kg i.p., p < 0.05) is “lower than rates after saline”.

Regarding “Ac-PNQDQNAR-NH2 [compound 2, shorter eight amino acid version of h3L4F]”, in data set [3], the “EMAX (%5-HT)” value is given as 118 ± 4.0%, the “change of 5-HT EC50 / potency versus 5-HT alone” value was “no change in EC50” and the “elevation of the maximum Cai2+ release induced by 5-HT” value is recorded as roughly 20%. Moreover, the “PTEN lipid phosphatase activity” value in the data set with PTEN (10 µM peptide) is recorded as “do not suppress PTEN lipid phosphatase activity”. Further, the “effect on 5-HT2CR agonist-mediated Cai2+ release” value in data set [4] is “enhance”.

On to `Cc1cc2c(cc1Cl)N(C(=O)Nc1ccc(Oc3cccnc3C)nc1)CC2` [SB242084], for which, in data set [5] (SB242084 0.5 mg/kg + lorcaserin 1 mg/kg + cocaine 2.5 mg/kg), the “lorcaserin (1 mg/kg)-mediated suppression of cocaine (2.5 mg/kg) lever responding and response rate after SB242084 pretreatment” value is “fully recovered”. Further, the “cocaine-lever responding, pretreatment before cocaine (2.5 mg/kg)” value in data set [5] (combination test) is given as “did not alter cocaine lever-responding or response rate”. In addition, in data set [5] (lorcaserin 1 mg/kg), the “cocaine-lever responding in substitution test” value is listed as “engendered primarily saline-lever responding”. Moreover, the “response rate in substitution test” value in data set [5] (setting [6]) is recorded as “slight but significant increase in response rate”.

On to `COC(=O)[C@H]1[C@@H](OC(=O)c2ccccc2)C[C@@H]2CC[C@H]1N2C` [cocaine], for which the “cocaine-lever responding in substitution test” value in data set [5] (lorcaserin 1 mg/kg) is reported as “full substitution”. The “response rates after training drug” value in data set [5] (training sessions, cocaine 5 mg/kg i.p., not statistically different from saline) was determined as 25.6 ± 0.55 min⁻¹.

Take “(S)-1-((S)-4-amino-2-((3S,4S)-4-((S)-1-((S)-1-carboxy-4-guanidinobutylamino)-1-oxo-propan-2-ylcarbamoyl)pyrrolidine-3-carboxamido)-4-oxobutanoyl)pyrrolidine-2-carboxylic acid [compound 7]”: the “potentiation of 5-HT-induced Cai2+ release (in words)” value in data set [3] (1 nM peptide, Welch's t-test vs 5-HT alone, α = 0.05) was “potentiated”. Besides, the “EMAX (%5-HT)” value in data set [3] was found to be 125 ± 5.2%. Further, the “drug-lever responding in combination with lorcaserin (0.5 mg/kg)” value in data set [1] (combination test, i.p., TAT-r3L4F 2 µmol/kg (p < 0.05), peptide 7 2, 5 µmol/kg) was “modestly, but not significantly, enhanced”. Besides, the “response rate in combination with lorcaserin (0.5 mg/kg)” value in data set [1] (combination test, i.p., TAT-r3L4F 2 µmol/kg, peptide 7 2, 5 µmol/kg) is on record as “no change in rate”. Besides, the drug-like responding in data set [1] (substitution test, i.p., TAT-r3L4F 1, 2 µmol/kg, peptide 7 1, 2, 5 µmol/kg (data not shown)) was less than 20%.

Turning to “Ac-PNQDQNARRRKKKERR-NH2 [h3L4F, 16 amino acid peptide homologous to a fragment of the third intracellular loop of the human 5-HT2CR]”, in data set [3], the “EMAX (%5-HT)” value is 131 ± 6.3%, the “change of 5-HT EC50 / potency versus 5-HT alone” value is “no change in EC50” and the “elevation of the maximum Cai2+ release induced by 5-HT” value is recorded as roughly 30%. For the same compound, the “PTEN lipid phosphatase activity” value in the data set with PTEN (10 µM peptide) is listed as “do not suppress PTEN lipid phosphatase activity”. Moreover, the “effect on 5-HT2CR agonist-mediated Cai2+ release” value in data set [4] is “enhance”.

For `C[C@H]1CNCCc2ccc(Cl)cc21` [lorcaserin, (1R)-8-chloro-2,3,4,5-tetrahydro-1-methyl-1H-3 benzazepine], the ED50 in data set [1] (Rattus norvegicus, read-out: ED50 (dose predicted to elicit 50% lorcaserin-lever responding)) is 0.54 mg/kg. In addition, in data set [1] (training sessions, lorcaserin 0.75 mg/kg i.p., p < 0.05), the “response rates after training drug versus saline” value is on record as “lower than rates after saline”. Also, the “response rate in substitution test” value in data set [2] (lorcaserin 1 mg/kg (vs saline), TAT-r3L4F 1, 2 µmol/kg (vs previous WAY163909 maintenance session)) is listed as “suppressed response rates versus saline”; in data set [5] (setting [6]) it was “significant reduction in response rate”. Besides, the “substitution for WAY163909” value in data set [2] (substitution test, lorcaserin 1 mg/kg i.p.) is on record as “full substitution”. In data set [5] (TAT-r3L4F alone 1, 2 µmol/kg, lorcaserin alone 0.5 mg/kg, data not shown), the “lever responding in substitution test (low-dose series)” value was “saline-appropriate responding”. For the same compound, the “full substitution evoked by cocaine (2.5 mg/kg) after lorcaserin (0.5 mg/kg) alone” value in data set [5] (combination test, lorcaserin 0.5 mg/kg + cocaine 2.5 mg/kg) was “not suppressed”. The “cocaine-lever responding, pretreatment before cocaine (2.5 mg/kg)” value in data set [5] (combination test) is on record as “significantly reduced cocaine lever-appropriate responding”. For the same compound, the “response rate, pretreatment before cocaine (2.5 mg/kg)” value in data set [5] (combination test, lorcaserin 1 mg/kg, p < 0.05) is on record as “significantly reduced”. The “behavioral disruption (failure to complete FR 20)” value in data set [5] (lorcaserin 1 mg/kg i.p. alone, two rats failed to complete the FR 20 schedule) is given as “induces behavioral disruption”. The “cocaine-lever responding in substitution test” value in data set [5] (lorcaserin 1 mg/kg) is given as “engendered primarily saline-lever responding”. The “response rates associated with cocaine (2.5 mg/kg)” value in data set [5] (lorcaserin alone 0.5 mg/kg, or TAT-r3L4F 1, 2 µmol/kg plus lorcaserin 0.5 mg/kg, p < 0.05) is listed as “significantly suppressed the response rates”. Further, the “response rate in substitution test (low-dose series)” value in data set [5] (vs previous cocaine maintenance session, TAT-r3L4F alone 1, 2 µmol/kg, lorcaserin alone 0.5 mg/kg, data not shown) is recorded as “significant reduction in response rates”.
